Laboratory results as given in PubChem BioAssay AID256 (DTP/NCI, 2004).
“And” between values parts separate entries of the source, which are not always exact repeats. Identical values can stand only once. Toxic doses and inconclusive results are not listed.

Test system: CD2F1 mice, L1210 leukemia ip, survival T/C
Test: NCI In Vivo Anticancer Drug Screen. Data for tumor model L1210 Leukemia (intraperitoneal) in CD2F1 (CDF1) mice
Details: higher = longer survival
Procedure, shortened: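 Vehicle-treated tumor-bearing mice served as controls (C) for compound-treated mice (T). Reported figure is T divided by C.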

[1] = endpoint: mean survival time, dose: 50.0 mg/kg/injection, schedule: Q01DX009 (ip), vehicle: saline with Tween-80
[2] = endpoint: mean survival time, dose: 100.0 mg/kg/injection, schedule: Q01DX009 (ip), vehicle: saline with Tween-80
[3] = endpoint: mean survival time, dose: 200.0 mg/kg/injection, schedule: Q01DX009 (ip), vehicle: saline with Tween-80

In the case of `C/C(C(=O)O)=C(\C)C(=O)O`, the T/C (endpoint: mean survival time, dose: 100.0 mg/kg/injection, schedule: Q01DX005 (ip), vehicle: saline) is reported as 101 % of control, the T/C (endpoint: mean survival time, dose: 200.0 mg/kg/injection, schedule: Q01DX005 (ip), vehicle: saline) is reported as 101 % of control and the T/C (endpoint: mean survival time, dose: 400.0 mg/kg/injection, schedule: Q01DX005 (ip), vehicle: saline) is reported as 101 % of control.
With `CC12CCC(=O)C=C1CCC1C2C(=O)CC2(C)C1CCC2(O)C(=O)Cn1cc(F)c(=O)[nH]c1=O` (configuration not stated) the T/C (endpoint: mean survival time, dose: 12.5 mg/kg/injection, schedule: Q04DX003 (ip), vehicle: Klucel (hydroxypropylcellulose) (HPC)) was 100 % of control, the T/C (endpoint: mean survival time, dose: 25.0 mg/kg/injection, schedule: Q04DX003 (ip), vehicle: Klucel (hydroxypropylcellulose) (HPC)) was 103 % of control and the T/C (endpoint: mean survival time, dose: 50.0 mg/kg/injection, schedule: Q04DX003 (ip), vehicle: Klucel (hydroxypropylcellulose) (HPC)) was 100 % of control. The T/C (endpoint: mean survival time, dose: 100.0 mg/kg/injection, schedule: Q04DX003 (ip), vehicle: Klucel (hydroxypropylcellulose) (HPC)) was 96 % of control and the T/C (endpoint: mean survival time, dose: 200.0 mg/kg/injection, schedule: Q04DX003 (ip), vehicle: Klucel (hydroxypropylcellulose) (HPC)) was 94 % of control.
For `CCC1(O)C(=O)OCc2c1cc1n(c2=O)Cc2cc3cc([N+](=O)[O-])ccc3nc2-1` (configuration not stated), the T/C (endpoint: median survival time, dose: 3.63 mg/kg/injection, schedule: Q04DX002 (ip), vehicle: saline with Tween-80) was 185 % of control, the T/C (endpoint: median survival time, dose: 7.25 mg/kg/injection, schedule: Q04DX002 (ip), vehicle: saline with Tween-80) was 233 % of control and the T/C (endpoint: median survival time, dose: 7.5 mg/kg/injection, schedule: Q04DX002 (ip), vehicle: saline with Tween-80) was 183 % of control. For the same molecule, the T/C (endpoint: median survival time, dose: 15.5 mg/kg/injection, schedule: Q04DX002 (ip), vehicle: saline with Tween-80) was 219 % of control and 103 % of control.
`[N-]=[N+]=CC(=O)CCC(NC(=O)OCc1ccccc1)C(=O)OCc1ccccc1` (configuration not stated) was tested, and the T/C (endpoint: median survival time, dose: 200.0 mg/kg/injection, schedule: Q01DX009 (ip), vehicle: Klucel (hydroxypropylcellulose) (HPC)) was 123 % of control and 96 % of control and 111 % of control and the T/C (endpoint: median survival time, dose: 400.0 mg/kg/injection, schedule: Q01DX009 (ip), vehicle: Klucel (hydroxypropylcellulose) (HPC)) was 114 % of control.
For `COC(=O)C1CCN1C(C)C` (configuration not stated), the T/C (endpoint: mean survival time, dose: 12.5 mg/kg/injection, schedule: Q01DX009 (ip), vehicle: other) was 106 % of control, the T/C (endpoint: mean survival time, dose: 25.0 mg/kg/injection, schedule: Q01DX009 (ip), vehicle: other) was 106 % of control and the T/C (endpoint: mean survival time, dose: 50.0 mg/kg/injection, schedule: Q01DX009 (ip), vehicle: other) was 96 % of control. For the same molecule, the T/C (endpoint: mean survival time, dose: 100.0 mg/kg/injection, schedule: Q01DX009 (ip), vehicle: other) was 98 % of control and the T/C (endpoint: mean survival time, dose: 200.0 mg/kg/injection, schedule: Q01DX009 (ip), vehicle: other) was 98 % of control.
In the case of `Clc1cc(Cl)c2nc[nH]c2c1`, the T/C [1] is reported as 91 % of control and the T/C [2] is reported as 95 % of control.
`COc1ccc2c(c1)c1c(C)c3cnccc3c(C)c1n2CCO` was tested, and the T/C (endpoint: mean survival time, dose: 100.0 mg/kg/injection, schedule: Q04DX003 (ip), vehicle: saline with Tween-80) was 112 % of control and the T/C (endpoint: mean survival time, dose: 200.0 mg/kg/injection, schedule: Q04DX003 (ip), vehicle: saline with Tween-80) was 115 % of control.
With `CCCC(C(CC)CN(C)C)N(C)C` (configuration not stated) the T/C (endpoint: mean survival time, dose: 3.12 mg/kg/injection, schedule: Q04DX002 (ip), vehicle: saline with Tween-80) was 113 % of control, the T/C (endpoint: mean survival time, dose: 6.25 mg/kg/injection, schedule: Q04DX002 (ip), vehicle: saline with Tween-80) was 106 % of control and the T/C (endpoint: mean survival time, dose: 12.5 mg/kg/injection, schedule: Q04DX002 (ip), vehicle: saline with Tween-80) was 107 % of control. The T/C (endpoint: mean survival time, dose: 25.0 mg/kg/injection, schedule: Q01DX001 (ip), vehicle: saline with Tween-80) was 120 % of control, the T/C (endpoint: mean survival time, dose: 25.0 mg/kg/injection, schedule: Q04DX002 (ip), vehicle: saline with Tween-80) was 103 % of control and the T/C (endpoint: mean survival time, dose: 50.0 mg/kg/injection, schedule: Q01DX001 (ip), vehicle: saline with Tween-80) was 100 % of control. The T/C (endpoint: mean survival time, dose: 100.0 mg/kg/injection, schedule: Q01DX001 (ip), vehicle: saline with Tween-80) was 100 % of control.
For `N#CC(C#N)=NNc1ccc(S(=O)(=O)c2ccc(NN=C(C#N)C#N)cc2)cc1`, the T/C [2] was 103 % of control, the T/C [3] was 100 % of control and the T/C (endpoint: mean survival time, dose: 400.0 mg/kg/injection, schedule: Q01DX009 (ip), vehicle: saline with Tween-80) was 103 % of control.
`O=[N+]([O-])c1ccc(S(=O)(=O)Cl)c(Cl)c1` was tested, and the T/C (endpoint: mean survival time, dose: 18.8 mg/kg/injection, schedule: Q01DX009 (ip), vehicle: saline with Tween-80) was 91 % of control, the T/C (endpoint: mean survival time, dose: 37.5 mg/kg/injection, schedule: Q01DX009 (ip), vehicle: saline with Tween-80) was 100 % of control and the T/C (endpoint: mean survival time, dose: 75.0 mg/kg/injection, schedule: Q01DX009 (ip), vehicle: saline with Tween-80) was 95 % of control. For the same molecule, the T/C (endpoint: mean survival time, dose: 100.0 mg/kg/injection, schedule: Q04DX003 (ip), vehicle: saline) was 98 % of control, the T/C (endpoint: mean survival time, dose: 200.0 mg/kg/injection, schedule: Q04DX003 (ip), vehicle: saline) was 89 % of control and the T/C (endpoint: mean survival time, dose: 400.0 mg/kg/injection, schedule: Q04DX003 (ip), vehicle: saline) was 86 % of control.
For `C=C[Si]1(C)O[Si](C)(C=C)O[Si](C)(C=C)O1` (configuration not stated), the T/C [1] was 93 % of control, the T/C [2] was 104 % of control and the T/C [3] was 93 % of control.
